Measurements as given in the supplement of paper PMC10307832.

Key:
Assay in all cases: relative viability (nuclei count vs DMSO), 5 days (fraction); higher = more cells survive
[1] = test system: 201T
Outline: (§1)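 Lung cancer cell lines in 1536-well plates were dosed by pin tool the day after seeding, either with one drug alone or with a fixed anchor-drug dose plus five library-drug doses (not always all listed) in √10 steps. After 5 days, cells were fixed and their nuclei stained in one step (final 0.05% Triton X-100, 1% formaldehyde, 1 ug/ml Hoechst), then counted on 4× images. Relative viability is the nuclei count in treated wells divided by that in vehicle wells. Values are medians of duplicate plates.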

[2] = test system: NCI-H1792
Outline: as §1

[3] = test system: NCI-H1915
Outline: as §1

[4] = test system: NCI-H1650
Outline: as §1

[5] = test system: NCI-H441
Outline: as §1

[6] = test system: LC-2-ad
Outline: as §1

[7] = test system: PC-3 [JPC-3]
Outline: as §1

[8] = test system: NCI-H460
Outline: as §1

[9] = test system: H3255
Outline: as §1

[10] = test system: BEN
Outline: as §1

[11] = test system: HCC-15
Outline: as §1

[12] = test system: NCI-H727
Outline: as §1

[13] = test system: NCI-H2023
Outline: as §1

[14] = test system: ABC-1
Outline: as §1

[15] = test system: NCI-H596
Outline: as §1

[16] = test system: NCI-H650
Outline: as §1

[17] = test system: NCI-H1944
Outline: as §1

[18] = test system: NCI-H661
Outline: as §1

[19] = test system: CAL-12T
Outline: as §1

[20] = test system: NCI-H2087
Outline: as §1

[21] = test system: NCI-H520
Outline: as §1

[22] = test system: NCI-H1651
Outline: as §1

[23] = test system: A-427
Outline: as §1

[24] = test system: LCLC-97TM1
Outline: as §1

COc1cc(N2CCC(C(N)=O)CC2)ccc1Nc1nc(N)c(Cl)c(Nc2ccccc2S(=O)(=O)C(C)C)n1 [HG-5-88-01] + C[C@@H](Oc1cc(-c2cnn(C3CCNCC3)c2)cnc1N)c1c(Cl)ccc(F)c1Cl [Crizotinib] (partner 1 µM)
relative viability ([1]; first compound 0.04 µM): 1
relative viability ([1]; first compound 0.1265 µM): 0.846
relative viability ([1]; first compound 0.4 µM): 1.03
relative viability ([1]; first compound 1.265 µM): 0.986
relative viability ([1]; first compound 4 µM): 1.11
relative viability ([2]; first compound 0.04 µM): 1.11
relative viability ([2]; first compound 0.1265 µM): 0.968
relative viability ([2]; first compound 0.4 µM): 0.869
relative viability ([2]; first compound 1.265 µM): 0.947
relative viability ([2]; first compound 4 µM): 0.978
relative viability ([3]; first compound 0.04 µM): 0.926
relative viability ([3]; first compound 0.1265 µM): 0.885
relative viability ([3]; first compound 0.4 µM): 0.906
relative viability ([3]; first compound 1.265 µM): 0.928
relative viability ([3]; first compound 4 µM): 0.808
relative viability ([4]; first compound 0.04 µM): 1.04
relative viability ([4]; first compound 0.1265 µM): 1.01
relative viability ([4]; first compound 0.4 µM): 0.948
relative viability ([4]; first compound 1.265 µM): 0.817
relative viability ([4]; first compound 4 µM): 0.373
relative viability ([5]; first compound 0.04 µM): 0.655
relative viability ([5]; first compound 0.1265 µM): 0.764
relative viability ([5]; first compound 0.4 µM): 0.554
relative viability ([5]; first compound 1.265 µM): 0.648
relative viability ([5]; first compound 4 µM): 0.431
relative viability ([6]; first compound 0.04 µM): 0.436
relative viability ([6]; first compound 0.1265 µM): 0.496
relative viability ([6]; first compound 0.4 µM): 0.5
relative viability ([6]; first compound 1.265 µM): 0.4
relative viability ([6]; first compound 4 µM): 0.368
relative viability ([7]; first compound 0.04 µM): 0.983
relative viability ([7]; first compound 0.1265 µM): 1.03
relative viability ([7]; first compound 0.4 µM): 1.07
relative viability ([7]; first compound 1.265 µM): 0.937
relative viability ([7]; first compound 4 µM): 0.64
relative viability ([8]; first compound 0.04 µM): 0.83
relative viability ([8]; first compound 0.1265 µM): 1.06
relative viability ([8]; first compound 0.4 µM): 0.851
relative viability ([8]; first compound 1.265 µM): 0.843
relative viability ([8]; first compound 4 µM): 0.0524
relative viability ([9]; first compound 0.04 µM): 0.844
relative viability ([9]; first compound 0.1265 µM): 0.949
relative viability ([9]; first compound 0.4 µM): 0.833
relative viability ([9]; first compound 4 µM): 0.308
relative viability ([10]; first compound 0.04 µM): 0.975
relative viability ([10]; first compound 0.1265 µM): 0.915
relative viability ([10]; first compound 0.4 µM): 0.895
relative viability ([10]; first compound 1.265 µM): 0.625
relative viability ([10]; first compound 4 µM): 0.962
relative viability ([11]; first compound 0.04 µM): 0.898
relative viability ([11]; first compound 0.1265 µM): 0.775
relative viability ([11]; first compound 0.4 µM): 0.779
relative viability ([11]; first compound 1.265 µM): 0.801
relative viability ([11]; first compound 4 µM): 0.77
relative viability ([12]; first compound 0.04 µM): 0.931
relative viability ([12]; first compound 0.1265 µM): 0.937
relative viability ([12]; first compound 0.4 µM): 0.827
relative viability ([12]; first compound 1.265 µM): 0.492
relative viability ([12]; first compound 4 µM): 0.585
relative viability ([13]; first compound 0.04 µM): 0.729
relative viability ([13]; first compound 0.1265 µM): 0.763
relative viability ([13]; first compound 0.4 µM): 0.543
relative viability ([13]; first compound 1.265 µM): 0.405
relative viability ([13]; first compound 4 µM): 0.118
relative viability ([14]; first compound 0.04 µM): 1.15
relative viability ([14]; first compound 0.1265 µM): 0.939
relative viability ([14]; first compound 0.4 µM): 0.813
relative viability ([14]; first compound 1.265 µM): 0.606
relative viability ([14]; first compound 4 µM): 0.43
relative viability ([15]; first compound 0.04 µM): 0.949
relative viability ([15]; first compound 0.1265 µM): 1.04
relative viability ([15]; first compound 0.4 µM): 1.02
relative viability ([15]; first compound 1.265 µM): 0.936
relative viability ([15]; first compound 4 µM): 0.734
relative viability ([16]; first compound 0.04 µM): 0.812
relative viability ([16]; first compound 0.1265 µM): 0.739
relative viability ([16]; first compound 0.4 µM): 0.579
relative viability ([16]; first compound 1.265 µM): 0.519
relative viability ([16]; first compound 4 µM): 0.398
relative viability ([17]; first compound 0.04 µM): 1.09
relative viability ([17]; first compound 0.1265 µM): 1.13
relative viability ([17]; first compound 0.4 µM): 1.09
relative viability ([17]; first compound 1.265 µM): 0.82
relative viability ([17]; first compound 4 µM): 1.06
relative viability ([18]; first compound 0.1265 µM): 0.964
relative viability ([18]; first compound 0.4 µM): 1.1
relative viability ([18]; first compound 1.265 µM): 0.777
relative viability ([18]; first compound 4 µM): 0.926
relative viability ([19]; first compound 0.04 µM): 0.589
relative viability ([19]; first compound 0.1265 µM): 0.671
relative viability ([19]; first compound 0.4 µM): 0.421
relative viability ([19]; first compound 1.265 µM): 0.432
relative viability ([19]; first compound 4 µM): 0.183
relative viability ([20]; first compound 0.04 µM): 0.758
relative viability ([20]; first compound 0.1265 µM): 0.868
relative viability ([20]; first compound 0.4 µM): 0.839
relative viability ([20]; first compound 1.265 µM): 0.825
relative viability ([20]; first compound 4 µM): 0.527
relative viability ([21]; first compound 0.04 µM): 0.907
relative viability ([21]; first compound 0.1265 µM): 0.704
relative viability ([21]; first compound 0.4 µM): 0.711
relative viability ([21]; first compound 1.265 µM): 0.762
relative viability ([21]; first compound 4 µM): 0.663
relative viability ([22]; first compound 0.04 µM): 0.866
relative viability ([22]; first compound 0.1265 µM): 0.828
relative viability ([22]; first compound 0.4 µM): 0.808
relative viability ([22]; first compound 1.265 µM): 0.713
relative viability ([22]; first compound 4 µM): 0.942
relative viability ([23]; first compound 0.04 µM): 0.93
relative viability ([23]; first compound 0.1265 µM): 0.952
relative viability ([23]; first compound 0.4 µM): 0.951
relative viability ([23]; first compound 1.265 µM): 0.843
relative viability ([23]; first compound 4 µM): 0.791
relative viability ([24]; first compound 0.04 µM): 0.461
relative viability ([24]; first compound 0.1265 µM): 0.379
relative viability ([24]; first compound 0.4 µM): 0.359
relative viability ([24]; first compound 1.265 µM): 0.23
relative viability ([24]; first compound 4 µM): 0.239
